Experimental findings from patent US4495202A, “Terphenyl derivatives and pharmaceutical uses thereof” (Eli Lilly and Company, priority 1983, dated 1985) are described below.

In assay [1] the test system is Cox standard strain albino male mice. Briefly: standard mouse writhing assay (acetic acid-induced writhing). The assay is classed as in vivo. The procedure: The analgesic activity of a number of compounds provided by this invention has been determined in the standard mouse writhing assay. Writhing, which is characterized by contraction of the abdominal musculature, extension of the hindlegs, and rotation of the trunk, was induced in Cox standard strain albino male mice. […] Each treatment group consisted of five mice. The total number of writhes for the treatment group was determined during a 10-minute observation starting five minutes after acetic acid administration. […] Table I which follows presents typical test results obtained with certain of the compounds of this invention. The results in the mouse writhing assay are presented as the effective oral (p.o.) dose in mg./kg. of the tested compound required to inhibit induced writhing in the test animals by fifty percent (ED50).

The test system of another assay is male Lewis-Wistar rats. Kind of assay: Established adjuvant-induced arthritis test in rats. The assay is classed as in vivo. The following applies: rat, days 15-29, from areas under the curves of uninjected paw volume.
[2] abbreviates: 3 h, oral gavage in corn oil-acacia emulsion (5%), three hours before acetic acid (0.60 percent, i.p.), inhibition of writhing by fifty percent, read-out: Mouse Writhing ED50.
Setting [3] is: 25 mg./kg. p.o. × 15, corn oil-acacia emulsion by gavage.
Setting [4] is: 10 mg./kg. p.o. × 15, corn oil-acacia emulsion by gavage.

Read-outs that look alike come from different tables or passages of the source.

For `COc1ccc(-c2ccc(-c3ccccc3)cc2-c2ccc(OC)cc2)cc1` [Example 2, 4'-Phenyl-4,4"-dimethoxy-1,1':2',1"-terphenyl], the ED50 in assay [1] (setting [2]) came out at 14.6 mg/kg. Besides, in the assay on male Lewis-Wistar rats (setting [3]), the “% Inhibition of Uninjected Paw Volume Inflammation, Days 14 through 30” value (from here on “% Inhibition”) stood at 13%.

As to `COc1ccc(-c2ccc(-c3cccc(F)c3)cc2-c2ccc(OC)cc2)cc1` [Example 5, 4'-(3-Fluorophenyl)-4,4"-dimethoxy-1,1':2',1"-terphenyl], in assay [1] (setting [2]), the ED50 is 8.9 mg/kg. Moreover, in the assay with male Lewis-Wistar rats (setting [3]), the “% Inhibition” value was found to be 40%.

On to `COc1ccc(-c2ccc(-c3ccc(Cl)cc3)cc2-c2ccc(OC)cc2)cc1` [Example 3, 4'-(4-Chlorophenyl)-4,4"-dimethoxy-1,1':2',1"-terphenyl], for which, in assay [1] (setting [2]), the ED50 is 14.2 mg/kg. Also, the “% Inhibition” value was determined as 31% with male Lewis-Wistar rats (setting [4]) and 52% in the assay on male Lewis-Wistar rats (setting [3]).

Consider `COc1ccc(-c2ccc(C(F)(F)F)cc2-c2ccc(OC)cc2)cc1` [Example 6, 4'-Trifluoromethyl-4,4"-dimethoxy-1,1':2',1"-terphenyl], for which, in assay [1] (setting [2]), the ED50 was 5.6 mg/kg. The “% Inhibition” value in the assay on male Lewis-Wistar rats (setting [4]) is 48%.

With `COc1ccc(-c2ccc(-c3ccc(Br)cc3)cc2-c2ccc(OC)cc2)cc1` [Example 4, 4'-(4-Bromophenyl)-4,4"-dimethoxy-1,1':2',1"-terphenyl], the ED50 in assay [1] (setting [2]) came out at 72.8 mg/kg. The “% Inhibition” value with male Lewis-Wistar rats (setting [3]) turned out to be 34%.

Consider `COc1ccc(-c2ccc(-c3ccc(F)cc3)cc2-c2ccc(OC)cc2)cc1` [Example 1, 4'-(4-Fluorophenyl)-4,4"-dimethoxy-1,1':2',1"-terphenyl], for which the ED50 in assay [1] (setting [2]) was determined as 11.8 mg/kg; in assay [1] (4 h, oral, at four hours post dosing, read-out: Mouse Writhing ED50 at four hours post dosing) it was 3.9 mg/kg. The “% Inhibition” value in the assay with male Lewis-Wistar rats (setting [3]) turned out to be 55%.
